Test system: plants
Assay: Test D pre-emergence, other plants of Tables D1 and D3
Assay type: in vivo
Settings: for damage to plant, ALOMY / damage to plant, AVEFA / damage to plant, BEAVA / damage to plant, BROTE / damage to plant, BRSNN / damage to plant, HORVW / damage to plant, SINAR: pre-emergence, 100=total damage, 0=no damage; for ABUTH damage to plant (100=total damage; 0=no damage) / AMARE damage to plant (100=total damage; 0=no damage) / DIGSA damage to plant (100=total damage; 0=no damage) / ECHCG damage to plant (100=total damage; 0=no damage) / ORYSA damage to plant (100=total damage; 0=no damage) / PANMI damage to plant (100=total damage; 0=no damage) / SETFA damage to plant (100=total damage; 0=no damage): preemergent
Procedure, shortened: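 Damage was rated visually from 0 (none) to 100 (total), at 20 DAA for pre-emergence and 15 d for post-emergence. Plants grew from safener-treated seed in a glasshouse at 24/18° C. or 20/16° C. day/night, 65% humidity, watered twice daily.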

CN1CC(c2cc(C(F)(F)F)n(C)n2)C(C(=O)Nc2cccc(F)n2)C1=O (racemic) [Compound 24]
50: ECHCG damage to plant (100=total damage; 0=no damage) (Rates 60, 20 DAA)
90: DIGSA damage to plant (100=total damage; 0=no damage) (Rates 130, 20 DAA) | DIGSA damage to plant (100=total damage; 0=no damage) (Rates 250, 20 DAA) | ECHCG damage to plant (100=total damage; 0=no damage) (Rates 250, 20 DAA) | DIGSA damage to plant (100=total damage; 0=no damage) (Rates 500, 20 DAA) | ECHCG damage to plant (100=total damage; 0=no damage) (Rates 500, 20 DAA) | SETFA damage to plant (100=total damage; 0=no damage) (Rates 500, 20 DAA)
70: ECHCG damage to plant (100=total damage; 0=no damage) (Rates 130, 20 DAA)
0: damage to plant, ALOMY (rate 15, 20 DAA) | damage to plant, AVEFA (rate 15, 20 DAA) | damage to plant, BEAVA (rate 15, 20 DAA) | damage to plant, BROTE (rate 15, 20 DAA) | damage to plant, BRSNN (rate 15, 20 DAA) | damage to plant, HORVW (rate 15, 20 DAA) | damage to plant, SINAR (rate 15, 20 DAA) | damage to plant, ALOMY (rate 30, 20 DAA) | damage to plant, AVEFA (rate 30, 20 DAA) | damage to plant, BEAVA (rate 30, 20 DAA) | damage to plant, BROTE (rate 30, 20 DAA) | damage to plant, BRSNN (rate 30, 20 DAA) | damage to plant, HORVW (rate 30, 20 DAA) | damage to plant, SINAR (rate 30, 20 DAA) | damage to plant, ALOMY (rate 60, 20 DAA) | damage to plant, AVEFA (rate 60, 20 DAA) | damage to plant, BEAVA (rate 60, 20 DAA) | damage to plant, BROTE (rate 60, 20 DAA) | damage to plant, BRSNN (rate 60, 20 DAA) | damage to plant, HORVW (rate 60, 20 DAA) | damage to plant, SINAR (rate 60, 20 DAA) | damage to plant, ALOMY (rate 130, 20 DAA) | damage to plant, AVEFA (rate 130, 20 DAA) | damage to plant, BEAVA (rate 130, 20 DAA) | damage to plant, BROTE (rate 130, 20 DAA) | damage to plant, BRSNN (rate 130, 20 DAA) | damage to plant, HORVW (rate 130, 20 DAA) | damage to plant, SINAR (rate 130, 20 DAA) | damage to plant, ALOMY (rate 250, 20 DAA) | damage to plant, AVEFA (rate 250, 20 DAA) | damage to plant, BEAVA (rate 250, 20 DAA) | damage to plant, BROTE (rate 250, 20 DAA) | damage to plant, BRSNN (rate 250, 20 DAA) | damage to plant, HORVW (rate 250, 20 DAA) | damage to plant, SINAR (rate 250, 20 DAA) | damage to plant, BEAVA (rate 500, 20 DAA) | damage to plant, BROTE (rate 500, 20 DAA) | damage to plant, BRSNN (rate 500, 20 DAA) | damage to plant, SINAR (rate 500, 20 DAA) | ABUTH damage to plant (100=total damage; 0=no damage) (Rates 15, 20 DAA) | AMARE damage to plant (100=total damage; 0=no damage) (Rates 15, 20 DAA) | DIGSA damage to plant (100=total damage; 0=no damage) (Rates 15, 20 DAA) | ECHCG damage to plant (100=total damage; 0=no damage) (Rates 15, 20 DAA) | ORYSA damage to plant (100=total damage; 0=no damage) (Rates 15, 20 DAA) | PANMI damage to plant (100=total damage; 0=no damage) (Rates 15, 20 DAA) | SETFA damage to plant (100=total damage; 0=no damage) (Rates 15, 20 DAA) | ABUTH damage to plant (100=total damage; 0=no damage) (Rates 30, 20 DAA) | AMARE damage to plant (100=total damage; 0=no damage) (Rates 30, 20 DAA) | ORYSA damage to plant (100=total damage; 0=no damage) (Rates 30, 20 DAA) | PANMI damage to plant (100=total damage; 0=no damage) (Rates 30, 20 DAA) | SETFA damage to plant (100=total damage; 0=no damage) (Rates 30, 20 DAA) | ABUTH damage to plant (100=total damage; 0=no damage) (Rates 60, 20 DAA) | AMARE damage to plant (100=total damage; 0=no damage) (Rates 60, 20 DAA) | ORYSA damage to plant (100=total damage; 0=no damage) (Rates 60, 20 DAA) | PANMI damage to plant (100=total damage; 0=no damage) (Rates 60, 20 DAA) | SETFA damage to plant (100=total damage; 0=no damage) (Rates 60, 20 DAA) | ABUTH damage to plant (100=total damage; 0=no damage) (Rates 130, 20 DAA) | AMARE damage to plant (100=total damage; 0=no damage) (Rates 130, 20 DAA) | ORYSA damage to plant (100=total damage; 0=no damage) (Rates 130, 20 DAA) | PANMI damage to plant (100=total damage; 0=no damage) (Rates 130, 20 DAA) | AMARE damage to plant (100=total damage; 0=no damage) (Rates 250, 20 DAA) | ORYSA damage to plant (100=total damage; 0=no damage) (Rates 250, 20 DAA) | PANMI damage to plant (100=total damage; 0=no damage) (Rates 250, 20 DAA) | ORYSA damage to plant (100=total damage; 0=no damage) (Rates 500, 20 DAA) | PANMI damage to plant (100=total damage; 0=no damage) (Rates 500, 20 DAA)
10: damage to plant, ALOMY (rate 500, 20 DAA) | damage to plant, AVEFA (rate 500, 20 DAA) | ECHCG damage to plant (100=total damage; 0=no damage) (Rates 30, 20 DAA) | AMARE damage to plant (100=total damage; 0=no damage) (Rates 500, 20 DAA)
20: damage to plant, HORVW (rate 500, 20 DAA) | ABUTH damage to plant (100=total damage; 0=no damage) (Rates 250, 20 DAA) | ABUTH damage to plant (100=total damage; 0=no damage) (Rates 500, 20 DAA)
60: SETFA damage to plant (100=total damage; 0=no damage) (Rates 250, 20 DAA)
30: DIGSA damage to plant (100=total damage; 0=no damage) (Rates 30, 20 DAA) | SETFA damage to plant (100=total damage; 0=no damage) (Rates 130, 20 DAA)
80: DIGSA damage to plant (100=total damage; 0=no damage) (Rates 60, 20 DAA)

From patent US20220281848A1, “PYRAZOLE-SUBSTITUTED PYRROLIDINONES AS HERBICIDES” (FMC Corporation, priority 2019, published 2022)
